For data set [1] the following is noted: cited from earlier work.
Data set [2] is described as follows: Slurry interconversion studies in cyclohexane. The class given is physicochemical. Conditions: for form resulting from slurry: cyclohexane, ambient temperature, 50° C. and 5° C. How it is done:
Samples of mixed forms by XRPD and pure forms were used for interconversion studies (see FIG. 37).
A saturated solution was prepared by vortexing and sonicating ca. 4 mg (−)-halofenate Form A in approximately 5-6 mL cyclohexane. This solution was filtered into a sample containing a mixture of ca. 40 mg Form A/Form D. The mixture was slurred on a rotating wheel at ambient temperature for approximately 6 days. The solids were recovered by vacuum filtration and vacuum dried at ambient temperature. The dry solids were analyzed by polarized light microscopy and XRPD.
The experiment was repeated using a shaker block at ca 50° C. using 2 mL of cyclohexane and slurried for ca. 3 days. and the supernatant was removed through decantation. Both the ambient and 50° C. experiments were repeated using pure forms A and E (ca. 20 mg of each form). The ambient experiment was also repeated with A, B, D, and E (ca. 10 mg of each form, slurred approximately 7 days) on a rotating wheel and on a magnetic stir plate in the refrigerator (ca 5° C.). When conversion was not deemed complete by XRPD solids were re-slurried in cyclohexane.
Interconversion studies were carried out in cyclohexane at ambient temperature 50° C. and 5° C. (see FIG. 37). The solvent was chosen because of the high solubility of the various forms in common organic solvents. Forms A, B, D and E were used as starting materials.

Data set [3] in a line: Automated moisture sorption/desorption. The class given is physicochemical. Conditions: for solid form after moisture sorption/desorption: XRPD after desorption. The method, then: Moisture sorption/desorption data were collected on a VTI-SGA-100 Vapor Sorption Analyzer. Sorption and desorption data were collected over a range of 5% to 95% relative humidity (RH) at 10% RH intervals under a nitrogen purge. Samples were not dried prior to analysis. Equilibrium criteria used for analysis were less than 0.0100% weight change in 5 minutes with a maximum equilibration time of 3 hours if the weight criterion was not met. Data were not corrected for the initial moisture content of the samples. Sodium chloride and polyvinylpyrolidone were used as calibration standards. A sample was taken after desorption was complete and analyzed by powder X-ray diffraction for potential form change.

Data set [4] can be described thus: Solid form stability on drying, slurrying and storage. The class given is physicochemical. As to conditions: for conversion to other solid forms: upon drying, slurrying or over time.
Data set [5] is described as follows: Thermal analysis (DSC/TGA), decomposition. The class given is physicochemical. How it is done:
Differential scanning calorimetry (DSC) was performed using a TA Instruments 2920 differential scanning calorimeter. The sample was placed into an aluminum DSC pan and the weight accurately recorded. The pan was covered with a lid and then crimped. The sample cell was equilibrated at 25° C. and heated under a nitrogen purge at a rate of 10° C./min, up to a final temperature of 350° C. Indium metal was used as the calibration standard. Reported temperatures are at the transition maxima.
Thermographic analyses (TGA) was performed using a TA Instruments 2920 thermographic analyzer. The sample was placed into an aluminum sample pan and inserted into a TGA furnace. The sample was first equilibrated at 25° C., then heated under a nitrogen at a rate of 10° C./min, up to a final temperature of 350° C. Nickel and ALUMEL™ were used as calibration standards.

Data set [6] is described as follows: Solubility studies in water and organic solvents. As to conditions: for solubility: thermodynamic from solid. How it is done:
Solubility studies were done on Form A in water and a variety of organic solvents. […] Solubility was also determined in these solvents at approximately 50° C.

The target in data set [7] is cytochrome P450 2C9 (Homo sapiens, UniProt P11712). As to conditions: cited from earlier work.
Sequence of cytochrome P450 2C9 (P11712 whole entry): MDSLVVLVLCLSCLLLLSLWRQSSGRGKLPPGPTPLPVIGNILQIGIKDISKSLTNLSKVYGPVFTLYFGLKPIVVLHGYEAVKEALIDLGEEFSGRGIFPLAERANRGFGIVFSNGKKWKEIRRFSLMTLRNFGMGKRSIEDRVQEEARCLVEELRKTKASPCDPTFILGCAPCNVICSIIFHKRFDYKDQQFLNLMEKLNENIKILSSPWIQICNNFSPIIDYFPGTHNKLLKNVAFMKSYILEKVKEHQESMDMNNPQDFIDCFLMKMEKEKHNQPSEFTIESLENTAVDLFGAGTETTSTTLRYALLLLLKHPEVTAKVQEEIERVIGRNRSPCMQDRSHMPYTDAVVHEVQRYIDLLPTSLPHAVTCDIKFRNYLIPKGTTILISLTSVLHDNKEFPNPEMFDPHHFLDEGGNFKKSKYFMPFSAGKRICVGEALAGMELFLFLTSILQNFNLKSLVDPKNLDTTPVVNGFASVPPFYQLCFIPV

Like-named read-outs stand apart in the source and are kept apart here. Bounds are passed on as bounds.

For `CC(=O)NCCOC(=O)C(Oc1cccc(C(F)(F)F)c1)c1ccc(Cl)cc1` (racemic) [racemic halofenate, 2-acetamidoethyl 4-chlorophenyl-(3-trifluoromethylphenoxy)-acetate], the side effects result in data set [1] (Friedberg et al., Clin. Res. 1986) is “gastrointestinal bleeding from stomach and peptic ulcers”. Moreover, in data set [1] (with agents such as warfarin sulfate (COUMADIN), Vesell and Passantanti 1972), the drug-drug interactions result was “some indications of drug-drug interactions”.

In the case of `CC(=O)NCCOC(=O)C(Oc1cccc(C(F)(F)F)c1)c1ccc(Cl)cc1` (stereo not shown) [Form E], the “form resulting from slurry” value in data set [2] is “resulted in Form A”. In data set [3], the hygroscopicity entry was “non-hygroscopicity” and the “solid form after moisture sorption/desorption” value is reported as “remained Form E”. For the same compound, the weight gain result in data set [3] (at 95% RH) is reported as “less than 0.2%”. Further, the “conversion to other solid forms” value in data set [4] is on record as “could be converted to Form A upon slurring”. The decomposition onset entry in data set [5] is “approximately 225 °C”.

On to `CC(=O)NCCOC(=O)C(Oc1cccc(C(F)(F)F)c1)c1ccc(Cl)cc1` (stereo not shown) [Form A], for which, in data set [2], the “form resulting from slurry” value is “resulted in Form A”. For the same compound, in data set [2] (from slurry interconversion in cyclohexane), the “relative stability of crystal form” value is on record as “most stable crystal form”. Further, the “relative solubility in crystallization solvents” value in data set [6] (some crystallization solvents) is on record as “lower solubility”. The hygroscopicity result in data set [3] is given as “non-hygroscopic”. The “solid form after moisture sorption/desorption” value in data set [3] was “essentially unchanged”. The results for the weight gain entry in data set [3] (at 65% relative humidity (RH)) and in data set [3] (at 65-95% RH) were “no weight gain” and 1.6%, respectively. Besides, in data set [3] (desorption at 5% RH), the “loss of weight gain in desorption study” value was “All of the weight gain was lost”. In addition, the “relative thermodynamic stability of crystalline solid form” value is “most thermodynamically stable” in data set [4] and “most stable crystalline solid form” in data set [4] (listed as form A). In addition, in data set [4] (long periods (months)), the storage stability result was “could be stored for long periods (months) without decomposition”. Also, the decomposition onset entry in data set [5] is “approximately 200 °C”.

For `CC(=O)NCCOC(=O)C(Oc1cccc(C(F)(F)F)c1)c1ccc(Cl)cc1` (stereo not shown) [Form D], the “form resulting from slurry” value in data set [2] was “resulted in Form A”. In data set [3], the hygroscopicity entry is “non-hygroscopicity” and the “solid form after moisture sorption/desorption” value was “remained Form D”. Besides, the weight gain result in data set [3] (at 95% RH) is listed as “less than 0.1%”. The “conversion to other solid forms” value in data set [4] is “could be converted to Form A upon slurring”. Also, in data set [5], the decomposition onset entry is “approximately 225 °C”.

On to `O=C(O)C(Oc1cccc(C(F)(F)F)c1)c1ccc(Cl)cc1` (racemic) [halofenic acid, 4-Chlorophenyl-(3-trifluoromethylphenoxy)-acetic acid], for which, in data set [7], the “inhibition of cytochrome P450 2C9” value is “inhibited”.

`CC(=O)NCCOC(=O)C(Oc1cccc(C(F)(F)F)c1)c1ccc(Cl)cc1` (stereo not shown) [Form B]: the “form resulting from slurry” value in data set [2] is listed as “resulted in Form A”. In addition, the “conversion to other solid forms” value in data set [4] is reported as “could be converted to other solid forms upon drying or slurrying”.

With `CC(=O)NCCOC(=O)C(Oc1cccc(C(F)(F)F)c1)c1ccc(Cl)cc1` (single isomer, unassigned; (-)) [(−)-halofenate, (−)-2-acetamidoethyl 4-chlorophenyl-(3-trifluoromethylphenoxy)-acetate], the solubility in data set [6] (organic solvent or mixture) was above 300 mg/mL; in data set [6] (water), below 1 mg/mL.

For `CC(=O)NCCOC(=O)C(Oc1cccc(C(F)(F)F)c1)c1ccc(Cl)cc1` (stereo not shown) [Form C], the “conversion to other solid forms” value in data set [4] is reported as “could be converted to other forms upon drying or slurrying”; in data set [4] (listed as form C), “over time conversion to crystal form E (below) occurred”.

Consider `O=C(O)C(Oc1cccc(C(F)(F)F)c1)c1ccc(Cl)cc1` (single isomer, unassigned; (-)) [(−)-enantiomer of halofenic acid], for which the “ability to inhibit cytochrome P450 2C9 compared to the (+)-enantiomer (less active)” value in data set [7] (versus (+)-enantiomer of halofenic acid, U.S. Pat. No. 6,262,118) is “about twenty-fold”.

What is called solubility is the dissolved amount per volume that the medium holds.

Source of the values: US9845285B2, “Crystalline solid and amorphous forms of (−)-halofenate and methods related thereto” (CymaBay Therapeutics, Inc., priority 2005, dated 2017).
